Data as given in the SangsterLogP compilation.

SMILES | logP
Oc1ccc(-c2c(Cl)cccc2Cl)cc1 | 4.63
Oc1ccc(-c2ccc(Cl)cc2)cc1 | 4.04
Oc1c(Cl)cc(-c2ccc(Cl)cc2)cc1Cl | 5.22
Oc1ccc(-c2c(Cl)cc(Cl)cc2Cl)cc1 | 5.22
Oc1ccc(-c2cc(Cl)ccc2Cl)cc1 | 4.63
Oc1ccc(-c2ccccc2)cc1 | 3.33
Oc1ccc(-c2cc(Cl)c(Cl)c(Cl)c2Cl)cc1 | 5.81
Oc1c(Cl)cc(-c2cc(Cl)c(O)c(Cl)c2)cc1Cl | 5.14
Oc1ccc(-c2ccc(O)cc2)cc1 | 2.66
Oc1ccc(-c2ccc(O)cc2Cl)cc1 | 3.37
Oc1ccc(-c2ccccc2)c(Cl)c1 | 4.04
